What was measured:
[1] = tested on: α1-, α3-, and α5-containing GABAA receptors; set-up: method as in PMID 20727364; details: versus SH-053-2′F-S-CH3; cited from earlier work
[2] = tested on: GABAA receptors; set-up: method as in PMID 17392731, PMID 20727364; details: cited from earlier work
[3] = tested on: α2-containing GABAA receptors; set-up: method as in PMID 20727364; details: versus SH-053-2′F-S-CH3; cited from earlier work
[4] = tested on: recombinant rat αxβ3γ2 receptors (x = 1, 2, 3, or 5); experiment: [3H]flunitrazepam radioligand displacement, all receptor subtypes tested; type: binding; details: for displacement of [3H]flunitrazepam in all receptor subtypes (in words): α1β3γ2, α2β3γ2, α3β3γ2, α5β3γ2, even at high micromolar concentrations for non-binders; for subtype selectivity of binding (in words): across α1, α2, α3, α5 subtypes
Description: (§1) To exclude a binding behavior unique to α2-containing receptors, we also performed similar radioligand displacement studies on other receptor combinations such as recombinantly expressed rat GABAA receptor subtypes α1β3γ2, α3β3γ2, and α5β3γ2 (see Figure S2).
However, we did observe differences in the potency rank order.
(§2) Radioligand displacement assays were performed in HEK-293 cells transfected with recombinant rat αxβ3γ2 receptors (x = 1, 2, 3, or 5) using 2 nM [^3H]flunitrazepam and 1 nM to 10 μM investigated compound as described previously.[20] Two-electrode voltage clamp recordings were performed on X. laevis oocytes treated with mRNA for the desired subunit combination at a GABA concentration eliciting 3% of the maximum current.[21]

[5] = tested on: α1β3γ2, α3β3γ2, and α5β3γ2 GABAA receptors; experiment: Two-electrode voltage clamp recordings, other receptor combinations in oocytes; type: cell-based; details: α1β3γ2, α3β3γ2, α5β3γ2 (and α2β3γ2); Figure S3
Description: In addition to the analysis of α2β3γ2-containing GABAA receptors, we also performed similar electrophysiological studies of other receptor combinations such as α1β3γ2, α3β3γ2, and α5β3γ2 (see Figure S3).
as §2

[6] = target: T1, recombinant rat GABAA receptor α5β3γ2 (Rattus norvegicus, UniProt P18508+P19969); experiment: [3H]flunitrazepam radioligand displacement, α5β3γ2; type: binding; details: for preference / selectivity for α5-containing receptors: binding affinity at α5 versus other receptor subtypes
T1 construct: expressed in transfected cells; host or cells: HEK-293
T1 sequence (P19969 32-464 limits assumed): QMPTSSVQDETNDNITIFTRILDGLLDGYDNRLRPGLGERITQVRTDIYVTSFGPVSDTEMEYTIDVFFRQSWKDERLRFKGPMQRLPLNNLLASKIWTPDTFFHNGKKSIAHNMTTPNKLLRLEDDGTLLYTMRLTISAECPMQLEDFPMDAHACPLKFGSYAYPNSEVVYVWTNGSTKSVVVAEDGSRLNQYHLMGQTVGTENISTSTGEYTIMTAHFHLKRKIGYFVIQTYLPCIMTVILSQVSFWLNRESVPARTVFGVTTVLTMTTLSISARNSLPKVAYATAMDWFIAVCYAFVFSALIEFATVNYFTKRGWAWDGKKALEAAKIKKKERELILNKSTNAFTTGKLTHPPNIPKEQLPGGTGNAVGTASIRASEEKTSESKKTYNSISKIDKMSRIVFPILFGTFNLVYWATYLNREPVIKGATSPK
T1 sequence (P63079 26-473 partner): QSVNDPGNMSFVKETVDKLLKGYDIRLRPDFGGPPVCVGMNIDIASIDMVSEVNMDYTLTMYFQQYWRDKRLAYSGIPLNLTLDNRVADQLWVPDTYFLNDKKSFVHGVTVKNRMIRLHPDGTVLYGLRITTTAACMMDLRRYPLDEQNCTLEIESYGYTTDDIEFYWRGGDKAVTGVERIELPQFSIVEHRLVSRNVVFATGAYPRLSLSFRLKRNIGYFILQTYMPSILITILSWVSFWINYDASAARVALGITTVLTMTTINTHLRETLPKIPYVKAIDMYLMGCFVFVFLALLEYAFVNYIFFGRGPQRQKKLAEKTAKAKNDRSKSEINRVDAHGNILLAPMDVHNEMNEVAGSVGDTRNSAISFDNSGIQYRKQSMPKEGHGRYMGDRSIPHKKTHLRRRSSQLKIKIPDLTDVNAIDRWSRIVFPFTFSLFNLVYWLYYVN
T1 sequence (P18508 39-466): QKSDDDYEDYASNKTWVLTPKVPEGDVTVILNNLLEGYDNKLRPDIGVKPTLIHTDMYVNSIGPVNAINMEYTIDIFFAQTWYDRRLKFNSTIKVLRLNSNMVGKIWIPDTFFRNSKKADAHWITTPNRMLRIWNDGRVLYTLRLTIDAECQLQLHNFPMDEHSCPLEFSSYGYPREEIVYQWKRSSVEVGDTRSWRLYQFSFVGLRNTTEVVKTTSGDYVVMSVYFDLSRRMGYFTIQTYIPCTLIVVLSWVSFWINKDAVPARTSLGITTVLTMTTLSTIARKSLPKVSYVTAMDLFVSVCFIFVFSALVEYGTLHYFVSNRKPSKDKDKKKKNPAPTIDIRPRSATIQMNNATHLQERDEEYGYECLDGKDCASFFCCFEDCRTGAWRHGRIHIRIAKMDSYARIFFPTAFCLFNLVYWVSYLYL
Description: as §1, §2
(§3) Inhibition of [3H]flunitrazepam binding to recombinant α1β3γ2, α2β3γ2, α3β3γ2, α5β3γ2 GABA A
(§4) receptors subtypes. Membranes from HEK 293 cells transfected with GABAA receptor
(§5) subunit combination, (α1β3γ2, α2β3γ2, α3β3γ2, α5β3γ2) were incubated with 2 nM
(§6) [3H]flunitrazepam in the presence of various concentrations of GABAA -R ligands investigated.
(§7) Data shown represent mean ± SEM of three experiments performed in duplicates each. […]

[7] = target: T2, recombinant rat GABAA receptor α3β3γ2 (Rattus norvegicus, UniProt P18508+P20236); experiment: [3H]flunitrazepam radioligand displacement, α3β3γ2; type: binding
T2 construct: expressed in transfected cells; host or cells: HEK-293
T2 sequence (P20236 29-493): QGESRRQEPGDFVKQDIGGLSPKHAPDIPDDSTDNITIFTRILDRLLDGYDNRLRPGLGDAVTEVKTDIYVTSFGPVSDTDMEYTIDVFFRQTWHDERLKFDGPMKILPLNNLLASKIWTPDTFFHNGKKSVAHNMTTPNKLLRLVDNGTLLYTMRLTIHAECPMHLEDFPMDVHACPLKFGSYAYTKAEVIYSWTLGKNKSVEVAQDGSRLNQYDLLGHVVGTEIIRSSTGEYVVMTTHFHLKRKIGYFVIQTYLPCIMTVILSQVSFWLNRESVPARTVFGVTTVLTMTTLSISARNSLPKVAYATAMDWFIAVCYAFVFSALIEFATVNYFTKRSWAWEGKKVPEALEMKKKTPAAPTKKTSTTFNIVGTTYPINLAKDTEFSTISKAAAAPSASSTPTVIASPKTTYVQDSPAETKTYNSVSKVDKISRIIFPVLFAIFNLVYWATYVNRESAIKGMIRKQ
T2 sequence (P63079 26-473 partner): as the sequence (P63079 26-473 partner) above
T2 sequence (P18508 39-466): as the sequence (P18508 39-466) above
Description: as §1, §2, §3, §4, §5, §6, §7

[8] = target: T3, recombinant rat GABAA receptor α2β3γ2 (Rattus norvegicus, UniProt P18508+P23576); experiment: [3H]flunitrazepam radioligand displacement, α2β3γ2; type: binding; details: for displacement of [3H]flunitrazepam at α2β3γ2 (in words): 2 nM [3H]flunitrazepam, HEK-293 membranes
T3 construct: expressed in transfected cells; host or cells: HEK-293
T3 sequence (P23576 29-451): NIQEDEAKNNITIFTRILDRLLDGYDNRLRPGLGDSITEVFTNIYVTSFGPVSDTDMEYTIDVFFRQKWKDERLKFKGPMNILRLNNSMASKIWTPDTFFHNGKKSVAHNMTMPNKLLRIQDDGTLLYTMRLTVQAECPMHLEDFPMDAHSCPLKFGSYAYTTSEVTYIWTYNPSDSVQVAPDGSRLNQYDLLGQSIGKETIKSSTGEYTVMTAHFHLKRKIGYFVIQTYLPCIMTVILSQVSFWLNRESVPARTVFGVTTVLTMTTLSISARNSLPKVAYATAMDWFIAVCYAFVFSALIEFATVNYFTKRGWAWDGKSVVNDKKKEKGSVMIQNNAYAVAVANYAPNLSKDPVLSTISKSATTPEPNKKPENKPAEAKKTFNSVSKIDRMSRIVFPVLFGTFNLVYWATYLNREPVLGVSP
T3 sequence (P63079 26-473 partner): as the sequence (P63079 26-473 partner) above
T3 sequence (P18508 39-466): as the sequence (P18508 39-466) above
Description: To test our predictions, we performed radioligand displacement studies and compared the potencies of our six chiral benzodiazepine ligands for the inhibition of binding of [^3H]flunitrazepam to α2β3γ2 recombinant rat GABAA receptor subtypes (see Figure 4).
Figure 4 Inhibition of binding of [^3H]flunitrazepam to recombinant α2β3γ2 GABAA receptor subtypes. Membranes from HEK-293 cells transfected with the GABAA receptor subunit combination α2β3γ2 were incubated with 2 nM [^3H]flunitrazepam in the presence of various concentrations of the six BZ site ligands. Data shown are the means ± the standard error of the mean of three independent experiments each performed in duplicate.
as §2, §3, §4, §5, §6, §7

[9] = target: T4, α2β3γ2-GABAA receptors (Rattus norvegicus, UniProt P18508+P23576); experiment: Two-electrode voltage clamp recordings, α2β3γ2 in Xenopus laevis oocytes; type: cell-based; details: GABA eliciting 3% of maximum current; for activity in the oocyte assay at drug concentrations of ≤1 μM: drug ≤1 μM
T4 construct: expressed in transfected cells; host or cells: Xenopus laevis oocytes (mRNA injected)
T4 sequence (P23576 29-451): as the sequence (P23576 29-451) above
T4 sequence (P63079 26-473 partner): as the sequence (P63079 26-473 partner) above
T4 sequence (P18508 39-466): as the sequence (P18508 39-466) above
From the text: Radioligand displacement assays provide information about the binding of a compound to only a specific binding site. To exclude the possibility that compounds 2-R and 3-R bind at a site different from the [^3H]flunitrazepam binding site (and are therefore unable to compete with the radioligand), we decided to determine the efficacies of all our test compounds using two-electrode voltage clamp recordings on α2β3γ2-mRNA-treated Xenopus laevis oocytes (see Figure 5).
Figure 5 Concentration–response curves of drug-induced enhancement of GABA currents. X. laevis oocytes were treated with mRNA for α2β3γ2-GABAA receptors and studied using two-electrode voltage clamp recordings. GABA-induced currents (3% of maximum) were modulated by addition of drug. Data are means ± the standard error of the mean of three independent experiments.
as §2

[10] = target: T5, recombinant rat GABAA receptor α1β3γ2 (Rattus norvegicus, UniProt P18508+P62813); experiment: [3H]flunitrazepam radioligand displacement, α1β3γ2; type: binding
T5 construct: expressed in transfected cells; host or cells: HEK-293
T5 sequence (P62813 28-455): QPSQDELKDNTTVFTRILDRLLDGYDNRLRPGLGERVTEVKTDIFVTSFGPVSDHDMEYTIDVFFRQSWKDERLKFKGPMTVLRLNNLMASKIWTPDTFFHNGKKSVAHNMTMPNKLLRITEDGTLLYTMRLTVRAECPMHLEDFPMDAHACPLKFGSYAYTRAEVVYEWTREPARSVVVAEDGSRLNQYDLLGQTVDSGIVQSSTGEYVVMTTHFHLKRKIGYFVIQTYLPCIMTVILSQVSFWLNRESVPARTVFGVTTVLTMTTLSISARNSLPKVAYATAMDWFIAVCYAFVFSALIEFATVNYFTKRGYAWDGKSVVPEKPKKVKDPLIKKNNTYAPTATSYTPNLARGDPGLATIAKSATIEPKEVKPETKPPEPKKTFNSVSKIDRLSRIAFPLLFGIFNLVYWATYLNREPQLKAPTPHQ
T5 sequence (P63079 26-473 partner): as the sequence (P63079 26-473 partner) above
T5 sequence (P18508 39-466): as the sequence (P18508 39-466) above
Description: as §1, §2, §3, §4, §5, §6, §7

| SMILES | lower affinity compared to the S isomer, α1-, α3-, and α5-containing receptors [1] | binding to GABAA receptors (in words) [2] | lower affinity compared to the S isomer, α2-containing receptors [3] [fold] | displacement of [3H]flunitrazepam in all receptor subtypes (in words) [4] | modulation of GABA currents in all receptor subtypes (in words) [5] | Ki [6] [nM] | preference / selectivity for α5-containing receptors [6] [fold] | Ki [7] [nM] | Ki [8] [nM] | displacement of [3H]flunitrazepam at α2β3γ2 (in words) [8] | modulation of GABA-induced chloride ion flux (in words) [9] | Ki [10] [nM] | modulation of GABA-induced currents at 10 μM ([9]; drug 10 μM) | activity in the oocyte assay at drug concentrations of ≤1 μM [9] | subtype selectivity of binding (in words) [4] |
| --- | --- | --- | --- | --- | --- | --- | --- | --- | --- | --- | --- | --- | --- | --- | --- |
| C#Cc1ccc2c(c1)C(c1ccccc1F)=N[C@H](C)c1c(C(=O)OCC)ncn1-2 [SH-053-2′F-R-CH3] | 3–5 fold | high affinity | 30 |  |  |  |  |  |  |  |  |  |  |  |  |
| C#Cc1ccc2c(c1)C(c1ccccc1F)=N[C@@H](C)c1c(C(=O)OCC)ncn1-2 [SH-053-2′F-S-CH3] |  | high affinity |  |  |  |  |  |  |  |  |  |  |  |  |  |
| CCOC(=O)c1ncn2c1[C@@H](C)N=C(c1ccccc1F)c1cc(Br)ccc1-2 [compound 1-R] |  |  |  | potently replaced | positive modulation | 56 ± 8 | ~5 | 501 ± 79 | 253 ± 31 | retained its potential to displace the radioligand | positive allosteric modulators | 273 ± 41 |  |  |  |
| CCOC(=O)c1ncn2c1[C@H](C)N=C(c1ccccc1F)c1cc(Br)ccc1-2 [compound 1-S] |  |  |  | potently replaced | positive modulation | 17 ± 5 | > 4 | 136 ± 24 | 67 ± 9 | intermediate to high binding affinities | positive allosteric modulators | 190 ± 55 |  |  |  |
| C#Cc1ccc2c(c1)C(c1ccccc1)=N[C@H](C)c1nnc(C)n1-2 [compound 2-R] |  |  |  | failed to displace | mainly modulatory silent | > 10000 |  | > 10000 | > 10000 | inactive |  | > 10000 | slight positive modulation | complete loss of activity |  |
| C#Cc1ccc2c(c1)C(c1ccccc1)=N[C@@H](C)c1nnc(C)n1-2 [compound 2-S] |  |  |  | potently replaced | positive modulation | 80 ± 4 |  | 656 ± 110 | 164 ± 15 | intermediate to high binding affinities | positive allosteric modulators | 663 ± 21 |  |  | significant higher binding affinities in α2 and α5 GABAAR subtypes than in α1 and α3 subtypes |
| C[C@H]1N=C(c2ccccc2)c2cc(Br)ccc2NC1=O [compound 3-R] |  |  |  | failed to displace | mainly modulatory silent | > 10000 |  | > 10000 | > 10000 | inactive |  | > 10000 |  | complete loss of activity |  |
| C[C@@H]1N=C(c2ccccc2)c2cc(Br)ccc2NC1=O [compound 3-S] |  |  |  | potently replaced | positive modulation | 31 ± 5 |  | 102 ± 7 | 61 ± 10 | intermediate to high binding affinities | positive allosteric modulators | 64 ± 2 |  |  | low subtype selectivity |

— publication PMC6102643, “Different Benzodiazepines Bind with Distinct Binding Modes to GABAA Receptors” (ACS Chemical Biology, 2018)
